Experimental findings from patent US10633389B2, “CARM1 inhibitors and uses thereof” (Epizyme, Inc., priority 2013, dated 2020) are described below.

The subject of the experiment is asymmetric di-methyl PABP1 in RKO cells. In words: RKO methylation assay, In Cell Western (ICW) for asymmetric di-methyl PABP1. The format is cell-based. The following applies: Homo sapiens, RKO, Cellular potencies, ICW PABP1me2a. A digest of the protocol:
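RKO cells treated with compound for 48 h at 37 °C, then fixed, permeabilized and immunostained for asymmetric di-methyl PABP1, with DRAQ5 as DNA stain. Infrared 700/800 nm signal ratio normalized to DMSO and 20 μM reference-compound controls; IC50 from triplicate wells.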
With `CNCC(O)COc1cccc(-c2nc(N[C@@H]3CCOC3)c(C)c(N3CCC4(CN(CC(F)F)C4)C3)n2)c1` (some centres unmarked) [Example 475-1a], the IC50 – broadly, the concentration that gives 50% inhibition – was 5 to 10 µM.

`CNCC(O)COc1cccc(-c2nc(N[C@@H]3CCOC3)c(C)c(N3CCC4(CCOCC4)C3)n2)c1` (some centres unmarked) [Example 462-1a] gave a concentration for half-maximal inhibition (IC50) of 10 to 20 µM.

For `CNCC(O)COc1cccc(-c2nc(-c3c(C)noc3C)c(C)c(N3C[C@@H](C)O[C@@H](C)C3)n2)c1` (some centres unmarked) [Example 164-1a], the IC50 was < 5 µM.

`CNC[C@@H](O)COc1ccc(Cl)c(-c2nc(N[C@H]3CCN(C)C[C@H]3F)c(Cl)c(-c3c(C)noc3C)n2)c1` [Example 208-3]: the IC50 was < 5 µM.

As for `CNCC(O)COc1ccc(Cl)c(-c2nc(NC3CC(C)N(C(=O)OC)C(C)C3)c(C)c(-c3c(C)noc3C)n2)c1` (centres unmarked) [Example 46-3], the IC50 is < 5 µM.

Regarding `CNCC(O)COc1cc(Cl)cc(-c2nc(NC3CCN(CC(F)F)CC3)c(C)c(-c3c(C)noc3C)n2)c1` (centres unmarked) [Example 21-3], the 50% inhibitory concentration (IC50) is < 5 µM.

Take `CNCC(O)COc1cc(Cl)cc(-c2nc(C(=O)OC)cc(N(C)C3CCOCC3)n2)c1` (centres unmarked) [Example 623-1a]: the IC50 fell in the range of 10 to 20 µM.

`CNC[C@H](O)COc1ccc(Cl)c(-c2nc(-c3c(C)noc3C)c(C)c(N3CCN(C)C(C(F)F)C3)n2)c1` (some centres unmarked) [Example 74-3]: the IC50 is < 5 µM.

With `CNCC(O)COc1cccc(-c2nc(NC3CCOC3)c(C)c(N3CCN(C)C(C)(C)C3)n2)c1` (centres unmarked) [Example 455-1a], the IC50 was < 5 µM.

As for `CNCC(O)COc1cccc(-c2nc(OCC3CCN(C(=O)N(C)C)CC3)c(C)c(-c3c(C)noc3C)n2)c1` (centres unmarked) [Example 285-1a], the IC50 is < 5 µM.

As to `CNC[C@H](O)COc1ccc(F)c(-c2nc(-c3c(C)noc3C)c(C)c(N3CCC4(CC3)CN(C(=O)OC)C4)n2)c1` [Example 84-3], the IC50 was < 5 µM.

Consider `CNC[C@@H](O)COc1ccc(Cl)c(-c2nc(-c3c(C)noc3C)c(C)c(N3Cc4cncnc4C3)n2)c1` [Example 190-3], for which the IC50 is < 5 µM.

For `CCS(=O)(=O)N1CC2(CN(c3nc(-c4cccc(OCC(O)CNC)c4)nc(-c4c(C)noc4C)c3C)C2)C1` (centres unmarked) [Example 16-3], the 50% inhibitory concentration (IC50) is < 5 µM.

`CNCC(O)COc1cccc(-c2nc(Nc3nccn3C)c(C)c(-c3c(C)noc3C)n2)c1` (centres unmarked) [Example 18-3] returned an IC50 of 10 to 20 µM.

In the case of `CNC[C@@H](O)COc1ccc(Cl)c(-c2nc(N[C@@H]3CCN(C4CC4)C[C@@H]3F)c(C)c(-c3c(C)noc3C)n2)c1` [Example 167-3], the IC50 was < 5 µM.

Compound `CNCC(O)COc1cccc(-c2nc(N[C@@H]3CCOC3)c(C)c(N3CC4CCC(C3)O4)n2)c1` (some centres unmarked) [Example 412-1a] returned an IC50 of 10 to 20 µM.

With `CNC[C@@H](O)COc1ccc(Cl)c(-c2nc(-c3c(C)noc3C)c(C)c(N3Cc4[nH]c(=O)[nH]c(=O)c4C3)n2)c1` [Example 279-3], the IC50 lay within 10 to 20 µM.

In the case of `CNCC(O)COc1cccc(-c2nc(Nc3cnc(C)nc3)cc(-c3c(C)noc3C)n2)c1` (centres unmarked) [Example 49-1a], the IC50 fell in the range of 5 to 10 µM.

As to `CNCC(O)COc1cccc(-c2nc(NC3CCOCC3)c(C)c(-c3c(C)noc3C)n2)c1` (centres unmarked) [Example 6-1a], the IC50 was < 5 µM.

Turning to `CNCC(O)COc1cccc(-c2nc(N[C@@H]3CCOC3)c(C)c(-c3c(C)noc3C)n2)c1` (some centres unmarked) [Example 66-1a], the IC50 is < 5 µM.

With `CNC[C@@H](O)COc1ccc(Cl)c(-c2nc(-c3c(C)noc3C)c(C)c(N3CCC3)n2)c1` [Example 238-3], the IC50 was < 5 µM.

In the case of `CNC[C@@H](O)COc1ccc(Cl)c(-c2nc(NC3CCN(C(=O)OC)CC3)c(C)c(-c3c(C)noc3C)n2)c1` [Example 104-3], the IC50 was < 5 µM.

As for `CNCC(O)COc1cccc(-c2nc(N[C@@H]3CCOC3)c(C)c(N3CC[C@@H](N(C)C)C3)n2)c1` (some centres unmarked) [Example 392-1a], the IC50 was in the range of 5 to 10 µM.

In turn, `CNCC(O)COc1cccc(-c2nc(N3CCO[C@H](CN)C3)cc(N(C)C3CCOCC3)n2)c1` (some centres unmarked) [Example 524-1a] returned an IC50 of 5 to 10 µM.

`CNCC(O)COc1ccc(Cl)c(-c2nc(NC[C@H]3COCCN3C3COC3)c(C)c(-c3c(C)noc3C)n2)c1` (some centres unmarked) [Example 2-3]: the half-inhibitory concentration (IC50) was < 5 µM.

Regarding `CNC[C@@H](O)COc1ccc(Cl)c(-c2nc(-c3c(C)noc3C)c(C)c(N3Cc4cn[nH]c4C3)n2)c1` [Example 231-3], the IC50 is < 5 µM.

Take `CNCC(O)COc1cccc(-c2nc(-c3c(C)noc3C)c(C)c(N3CCO[C@H](CN(C)C(=O)OC)C3)n2)c1` (some centres unmarked) [Example 127-1a]: the IC50 is < 5 µM.

As for `CNC[C@@H](O)COc1ccc(F)c(-c2nc(-c3c(C)noc3C)c(C)c(N3CC4(CCCCO4)C3)n2)c1` [Example 269-3], the IC50 is < 5 µM.

For `CCOC(=O)N1CCOC[C@@H]1CNc1nc(-c2cc(OC[C@@H](O)CNC)ccc2Cl)nc(-c2c(C)noc2C)c1C` [Example 42-3], the IC50 is < 5 µM.

On to `CNCC(O)COc1cccc(-c2nc(-c3c(C)noc3C)c(C)c(N3CCn4ccnc4C3)n2)c1` (centres unmarked) [Example 34-3], for which the IC50 lay within 5 to 10 µM.

For the compound `CNCC(O)COc1cccc(-c2nc(-c3c(C)noc3C)c(C)c(N3CCO[C@H](C)C3)n2)c1` (some centres unmarked) [Example 211-1a], the IC50 is < 5 µM.

As to `CNCC(O)COc1cccc(-c2nc(N[C@@H]3CCOC3)c(C)c(N3CCC(S(C)(=O)=O)CC3)n2)c1` (some centres unmarked) [Example 441-1a], the IC50 is 5 to 10 µM.

The compound `CNCC(O)COc1cccc(-c2nc(-c3nc(C)c[nH]3)cc(N(C)C3CCOCC3)n2)c1` (centres unmarked) [Example 521-1a] yielded an IC50 of 5 to 10 µM.

Consider `CNC[C@@H](O)COc1ccc(F)c(-c2nc(-c3c(C)noc3C)c(Cl)c(N3Cc4nccnc4C3)n2)c1` [Example 295-3], for which the IC50 is < 5 µM.

As for `CNCC(O)COc1cccc(-c2nc(Nc3nnc(C4CC4)s3)c(C)c(-c3c(C)noc3C)n2)c1` (centres unmarked) [Example 217-1a], the IC50 is < 5 µM.

Regarding `CNCC(O)COc1cccc(-c2nc(OCC3CCN(C(C)=O)CC3)c(C)c(-c3c(C)noc3C)n2)c1` (centres unmarked) [Example 287-1a], the IC50 is < 5 µM.

For the compound `CNC[C@@H](O)COc1ccc(Cl)c(-c2nc(-c3c(C)noc3C)c(Cl)c(N3Cc4ccncc4C3)n2)c1` [Example 214-3], the IC50 is < 5 µM.

With `CNCC(O)COc1cccc(-c2nc(N[C@@H]3CCOC3)c(C)c(N3CCN(CC(=O)N(C)C)CC3)n2)c1` (some centres unmarked) [Example 391-1a], the IC50 was 10 to 20 µM.

Turning to `CNCC(O)COc1ccc(Cl)c(-c2nc(NC3(C)CCOCC3)c(Cl)c(-c3c(C)noc3C)n2)c1` (centres unmarked) [Example 137-1a], the IC50 is < 5 µM.

With `CNCC(O)COc1cccc(-c2nc(-c3c(C)noc3C)cc(N3CCN(n4c(C)nnc4C)CC3)n2)c1` (centres unmarked) [Example 165-1a], the IC50 was < 5 µM.

On to `CNCC(O)COc1ccc(Cl)c(-c2nc(NC3CCOCC3)c(C)c(-c3c(C)noc3C)n2)c1` (centres unmarked) [Example 29-3], for which the IC50 is < 5 µM.

As to `CNCC(O)COc1cccc(-c2nc(NCC3CCN(C(=O)N(C)C)CC3)c(C)c(-c3c(C)noc3C)n2)c1` (centres unmarked) [Example 248-1a], the IC50 is < 5 µM.

Regarding `CNCC(O)COc1cccc(-c2nc(-c3cn(C)c4ncncc34)cc(N(C)C3CCOCC3)n2)c1` (centres unmarked) [Example 485-1a], the IC50 is < 5 µM.

Turning to `CNCC(O)COc1cccc(-c2nc(-c3c(C)noc3C)cc(N(C)C3CCOCC3)n2)c1` (centres unmarked) [Example 1-1a], the half-maximal inhibitory concentration (IC50) was < 5 µM.

For `CNC[C@@H](O)COc1ccc(Cl)c(-c2nc(-c3c(C)noc3C)c(C)c(N3Cc4c(C)nn(C)c4C3)n2)c1` [Example 236-3], the 50% inhibitory concentration (IC50) is < 5 µM.

Turning to `CNC[C@@H](O)COc1ccc(Cl)c(-c2nc(-c3c(C)noc3C)c(C)c(C3CC3)n2)c1` [Example 205-3], the IC50 was < 5 µM.

`CNCC(O)COc1cccc(-c2nc(N[C@@H]3CCOC3)c(C)c(-n3nc(C)cc3C)n2)c1` (some centres unmarked) [Example 382-1a] registered an IC50 of 10 to 20 µM.

For the compound `CNCC(O)COc1cc(Cl)cc(-c2nc(-c3ccn4cnnc4c3)c(C)c(N(C)C3CCOCC3)n2)c1` (centres unmarked) [Example 70-1], the IC50 fell in the range of 10 to 20 µM.

In turn, `CNCC(O)COc1cccc(-c2nc(N[C@@H]3CCOC3)c(C)c(N3CCCC4(CN(CC(F)F)C4)C3)n2)c1` (some centres unmarked) [Example 469-1a] yielded an IC50 of 5 to 10 µM.

For `CNC[C@H](O)COc1ccc(F)c(-c2nc(N[C@H]3CCN(C4CC4)C[C@H]3F)c(C)c(-c3c(C)noc3C)n2)c1` [Example 99-3], the IC50 is < 5 µM.

For the compound `CNCC(O)COc1cccc(-c2nc(N3CCC[C@H](O)C3)cc(N(C)C3CCOCC3)n2)c1` (some centres unmarked) [Example 538-1a], the IC50 lay in the range of 10 to 20 µM.

Consider `CNCC(O)COc1cc(Cl)cc(-c2nc(N[C@H]3CCOC3)cc(-c3c(C)noc3C)n2)c1` (some centres unmarked) [Example 12-1a], for which the IC50 lay within 10 to 20 µM.

`CNCC(O)COc1cccc(-c2nc(NC3CCC3)c(C)c(-c3c(C)noc3C)n2)c1` (centres unmarked) [Example 292-1a]: the IC50 is < 5 µM.

`CNCC(O)COc1cccc(-c2nc(N[C@@H]3CCOC3)c(C)c(N3CCN(C)C(=O)C3)n2)c1` (some centres unmarked) [Example 435-1a] gave an IC50 of 10 to 20 µM.

In turn, `CNCC(O)COc1cccc(-c2nc(N[C@@H]3CCNC3)c(C)c(-c3c(C)noc3C)n2)c1` (some centres unmarked) [Example 307-1a] came in with an IC50 of 10 to 20 µM.

Regarding `CNCC(O)COc1cccc(-c2nc(-c3c(C)noc3C)cc(N(C)CC3CCOCC3)n2)c1` (centres unmarked) [Example 87-1a], the IC50 was < 5 µM.

For the compound `CNCC(O)COc1cccc(-c2nc(-c3c(C)noc3C)c(C)c(N3CCN(C(=O)C(F)F)CC3)n2)c1` (centres unmarked) [Example 107-1a], the IC50 was < 5 µM.

As to `CCO[C@@H]1CCC[C@H]1Nc1nc(-c2cc(OC[C@H](O)CNC)ccc2Cl)nc(-c2c(C)noc2C)c1C` [Example 240-3], the IC50 was < 5 µM.

As to `CNC[C@@H](O)COc1ccc(Cl)c(-c2nc(-c3c(C)noc3C)c(C)c(N3CCC4(CC3)CN(C(=O)OC)C4)n2)c1` [Example 115-3], the half-inhibitory concentration (IC50) is < 5 µM.

`CNC[C@H](O)COc1ccc(F)c(-c2nc(NC3CCN(C(=O)OC)CC3)c(C)c(-c3c(C)noc3C)n2)c1` [Example 26-3]: the IC50 was < 5 µM.

Consider `CNC[C@H](O)COc1ccc(F)c(-c2nc(N[C@H]3CCN(C(=O)OC)C[C@H]3F)c(C)c(-c3c(C)noc3C)n2)c1` [Example 63-3], for which the IC50 is < 5 µM.

For the compound `CNCC(O)COc1cccc(-c2nc(-c3c(C)noc3C)cc(N3CCNC(C)C3)n2)c1` (centres unmarked) [Example 35-1a], the 50% inhibitory concentration (IC50) was in the range of 5 to 10 µM.
